Measurements taken from US20090054333A1, “Peptide inhibitors of cyclin-dependent kinase activity and uses thereof” (priority 2006, published 2009).

Tested on: endogenous cdk2
Experiment: endogenous cdk2 kinase activity after transient transfection of NIH/3T3 cells
Type: cell-based
Details: NIH/3T3 transfected with pEF6/V5 constructs; 48 h after transfection
Experimental: Kinase assays: Cell lysates from NIH/3T3 were prepared by resuspending pelleted cells in 500 μl of lysis buffer (50 mM Tris, 5 mM EDTA, 250 mM NaCl, 50 mM NaF, 0.1% Triton, 0.1 mM Na3VO4, plus protease inhibitors). An equal amount of protein for each fraction (100 μg) was immunoprecipitated with a polyclonal anti-cdk2 antibody (De Luca et al., 1997, J Biol Chem, 272, 20971-4). The complexes were pulled down with protein A-Sepharose and washed three times with lysis buffer and twice with lysis buffer containing 400 mM NaCl. The complexes were equilibrated in kinase assay buffer (20 mM HEPES pH 7.4, 10 mM MgAc, […], 1 mM DTT). In order to detect the in vitro inhibition of cdk2 activity, each sample was incubated with an equal amount (0.1 μg) of each pGEX-2T fusion protein, in a final volume of 20 μl of kinase buffer, using 5 μCi/sample of γ-ATP (Amersham Biosciences, Piscataway, N.J.) and 2 μg of Histone H1 for 30 minutes at 30° C. Kinase assays were repeated at least three times, giving an inter assay standard deviation within 10% after normalization for protein amount. […]
In FIG. 3a, asynchronously growing NIH/3T3 cells were transfected with pEF6/V5 vector, pEF6/V5-Spa310 or pEF6/V5-spacer. […] Phosphorylation of histone H1 was monitored by autoradiography. […]

Molecule: Spa310: pRb2/p130 amino acids 641-679 (39 amino acids long), SEQ ID NO:3; LTPRRVTEVRADTGGLGRSITSPTTLYDRYSSPPASTTR (listed as Homo sapiens)
- inhibition of cdk2-dependent histone phosphorylation (endogenous cdk2): significant inhibition

B1: Spacer: full-length pRb2/p130 spacer domain, amino acids 616-828 (SEQ ID NO:20) (protein, listed as Homo sapiens)
chain: VPTCEEVMPPQNLERADEICIAGSPLTPRRVTEVRADTGGLGRSITSPTTLYDRYSSPPASTTRRRLFVENDSPSDGGTPGRMPPQPLVNAVPVQNVSGETVSVTPVPGQTLVTMATATVTANNGQTVTIPVQGIANENGGITFFPVQVNVGGQAQAVTGSIQPLSAQALAGSLSSQQVTGTTLQVPGQVAIQQISPGGQQQKQGQSVTSSSN
- inhibition of cdk2-dependent histone phosphorylation (endogenous cdk2): significant inhibition
